# Laboratory results as given in patent US11497212B2, “Substituted thiophenyl uracils, salts thereof and the use thereof as herbicidal agents” (Syngenta Crop Protection AG, priority 2017, dated 2022).
# Columns and labels:
# Assay type in all cases: in vivo
# Glycine max = assay: Crop compatibility post-emergence (greenhouse pot trial)
# Outline: (§1)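 Compatibility is expressed as visually scored percent injury, where 0% means no difference from untreated controls and 100% means dead plants, assessed about 3 weeks after a foliar spray at 600 L/ha with 0.5% additive on one-leaf-stage pot plants in sandy loam.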
# Triticum aestivum = assay: as above
# Outline: as §1
# Zea mays = assay: as above
# Outline: as §1
# Oryza sativa = assay: as above; settings: application rate 20 g/ha
# Outline: as §1
# Amaranthus retroflexus = assay: Herbicidal action post-emergence (greenhouse pot trial); settings: application rate 20 g/ha, scored visually after about 3 weeks vs untreated controls
# Outline: (§2)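 Sowing in sandy loam, then 2–3 weeks of controlled greenhouse growth. Next, one-leaf-stage plants received a foliar spray of the WP- or EC-formulated compound with 0.5% additive (600 L/ha water, application rate of 80 g/ha or below). Finally, after about 3 weeks under optimal conditions, effect was judged by eye against controls.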
# Stellaria media = assay: as above; settings: application rate 20 g/ha, scored visually after about 3 weeks vs untreated controls
# Outline: as §2
# Veronica persica = assay: as above; settings: application rate 20 g/ha
# Outline: as §2
# Echinochloa crus-galli = assay: as above; settings: application rate 20 g/ha, scored visually after about 3 weeks vs untreated controls
# Outline: as §2
# Matricaria inodora = assay: as above; settings: application rate 20 g/ha, scored visually after about 3 weeks vs untreated controls
# Outline: as §2
# Polygonum convolvulus = assay: as above; settings: application rate 20 g/ha, scored visually after about 3 weeks vs untreated controls
# Outline: as §2
# Abutilon theophrasti = assay: as above; settings: application rate 20 g/ha, scored visually after about 3 weeks vs untreated controls
# Outline: as §2
# Viola tricolor = assay: as above; settings: application rate 20 g/ha
# Outline: as §2
# Alopecurus myosuroides = assay: as above; settings: application rate 20 g/ha, scored visually after about 3 weeks vs untreated controls
# Outline: as §2
# Pharbitis purpurea = assay: as above; settings: application rate 20 g/ha
# Outline: as §2
# Setaria viridis = assay: as above; settings: application rate 20 g/ha, scored visually after about 3 weeks vs untreated controls
# Outline: as §2
Glycine max (Efficacy in %) (Glycine max; application rate 5 g/ha) [%],Triticum aestivum (Efficacy in %) (Triticum aestivum; application rate 20 g/ha) [%],Zea mays (Efficacy in %) (Zea mays; application rate 5 g/ha) [%],Oryza sativa (Efficacy in %) (Oryza sativa) [%],Triticum aestivum (Efficacy in %) (Triticum aestivum; application rate 5 g/ha) [%],Glycine max (Efficacy in %) (Glycine max; application rate 20 g/ha) [%],Zea mays (Efficacy in %) (Zea mays; application rate 20 g/ha) [%],SMILES,Amaranthus retroflexus (Efficacy in %) (Amaranthus retroflexus) [%],Stellaria media (Efficacy in %) (Stellaria media) [%],Veronica persica (Efficacy in %) (Veronica persica) [%],Echinochloa crus-galli (Efficacy in %) (Echinochloa crus-galli) [%],Matricaria inodora (Efficacy in %) (Matricaria inodora) [%],Polygonum convolvulus (Efficacy in %) (Polygonum convolvulus) [%],Abutilon theophrasti (Efficacy in %) (Abutilon theophrasti) [%],Viola tricolor (Efficacy in %) (Viola tricolor) [%],Alopecurus myosuroides (Efficacy in %) (Alopecurus myosuroides) [%],Pharbitis purpurea (Efficacy in %) (Pharbitis purpurea) [%],Setaria viridis (Efficacy in %) (Setaria viridis) [%]
20,0,0,20,,,,"CCC(Sc1cc(-n2c(=O)c(C)c(C(F)(F)F)n(C)c2=O)c(F)cc1Cl)C(=O)OCC1CCOC1 (stereo not shown) [I.12-72, Tetrahydrofuran-3-ylmethyl 2-({2-chloro-4-fluoro-5-[3,5-dimethyl-2,6-dioxo-4-(trifluoromethyl)-3,6-dihydropyrimidin-1(2H)-yl]phenyl}sulfanyl)butanoate]",100,100,100,100,100,100,100,100,,,
,20,,0,,20,,Cc1c(C(F)(F)F)n(C)c(=O)n(-c2cc(SC(CC(C)C)C(=O)OCC3CCOC3)c(Cl)cc2F)c1=O (stereo not shown) [I.14-72],100,,100,,80,80,80,100,,80,100

# Continued, molecule first:
SMILES,Glycine max (Efficacy in %) (Glycine max; application rate 5 g/ha) [%],Triticum aestivum (Efficacy in %) (Triticum aestivum; application rate 20 g/ha) [%],Zea mays (Efficacy in %) (Zea mays; application rate 5 g/ha) [%],Oryza sativa (Efficacy in %) (Oryza sativa) [%],Triticum aestivum (Efficacy in %) (Triticum aestivum; application rate 5 g/ha) [%],Glycine max (Efficacy in %) (Glycine max; application rate 20 g/ha) [%],Zea mays (Efficacy in %) (Zea mays; application rate 20 g/ha) [%],Amaranthus retroflexus (Efficacy in %) (Amaranthus retroflexus) [%],Stellaria media (Efficacy in %) (Stellaria media) [%],Veronica persica (Efficacy in %) (Veronica persica) [%],Echinochloa crus-galli (Efficacy in %) (Echinochloa crus-galli) [%],Matricaria inodora (Efficacy in %) (Matricaria inodora) [%],Polygonum convolvulus (Efficacy in %) (Polygonum convolvulus) [%],Abutilon theophrasti (Efficacy in %) (Abutilon theophrasti) [%],Viola tricolor (Efficacy in %) (Viola tricolor) [%],Alopecurus myosuroides (Efficacy in %) (Alopecurus myosuroides) [%],Pharbitis purpurea (Efficacy in %) (Pharbitis purpurea) [%],Setaria viridis (Efficacy in %) (Setaria viridis) [%]
CCC(Sc1cc(-n2c(=O)c(C)c(C(F)(F)F)n(C)c2=O)c(F)cc1Cl)C(=O)OCC1CCCCO1 (stereo not shown) [I.12-91],0,,0,0,0,,,100,100,100,100,80,80,100,100,80,100,80
Cc1c(C(F)(F)F)n(C)c(=O)n(-c2cc(SC(CC(C)C)C(=O)OCC3CCCO3)c(Cl)cc2F)c1=O (stereo not shown) [I.14-71],,0,,0,,0,0,100,,100,,,,100,,,100,
Cc1c(C(F)(F)F)n(C)c(=O)n(-c2cc(SC(CC(C)C)C(=O)OCC3CCCCO3)c(Cl)cc2F)c1=O (stereo not shown) [I.14-91],,20,,0,,20,20,100,,100,,,,100,100,,80,
